Assay results published in patent publication US10041922B2, “Biochemistry based ocular toxicity assay” (priority 2015, dated 2018).
Where two headings read alike, the source gives them in different places.

What was measured:
[1] = test system: water-soluble protein/glycoprotein test matrix; test: Water soluble assay (Alpha): optical response (OD400) of the macromolecule active agent, irritation score; conditions: TP/FN/TN based on comparison with the in vivo test results
Description: (§1) The macromolecule based test matrix behaves as an active agent in the assay and is capable of undergoing a measurable change when exposed to an ocular irritant. The measurable change may be a change in appearance, which can be measured by spectrophotometry. One or more standards of known toxicity are added to at least a second aliquot of the water-soluble matrix to form control solutions, to generate a calibration curve. The measurable change induced by the test substance can be compared to the measurable change induced by the standards to make an ocular toxicity prediction. For instance, test substances that induce an equal or greater reaction than a known irritant may be classified as ocular irritants. In some embodiments, the pH of the control solution may be adjusted to match the pH of the test solution, thereby controlling for pH effects and increasing accuracy. In some embodiments, a test substance which is at least partially water insoluble is added to an aliquot of a reagent comprised of one or more hydrophobic organic polymers capable of undergoing a measurable change in response to water insoluble ocular irritants. The measurable change may be a change in appearance, which can be measured by spectrophotometry. One or more standards of known toxicity are added to at least a second aliquot of the reagent to generate a calibration curve. The measurable change induced by the test substance can be compared to the measurable change induced by the standards to make an ocular toxicity prediction in the manner described above. Water-soluble and water-insoluble assays can be performed in parallel, or multiplexed, to rapidly and efficiently predict the ocular toxicity of a wide range of compounds.
(§2) In some embodiments related to the water-soluble sub-assay, the test matrix is a water-soluble active agent comprising one or more macromolecules in aqueous solution. […] In some embodiments, the water-soluble active agent comprises at least one of isoleucine, glutamine, leucine, lysine, tyrosine, valine, proline, methione, fumerase, serine, urocanate, triacyl glycerol, globulin, gammaglobulin, mucopolysaccharide, albumin, carbohydrates, lipids, saponins, conalbumin, ovalbumin, ovomucoid, mucin, egg white fractions, plant extract, cell extract, milk fractions, red blood cell extract, muscle extract, gelatin fractions, heme, aspartate, lignocerate, stearate, linolenate, benzoate, carnitine, palmate, coenzyme A, and urea. The molecules and macromolecules can be derived as crude cell or tissue extracts, or obtained individually or in part and reconstituted.
(§3) A third pretest is performed to measure the buffering power of the unknown test substance. […] Next, 125 μL or mg of test substance is added to the test tube. The pH of the mixture is recorded. The final pH is compared to the starting pH and the absolute value of the change in pH is applied as an exponent to base 10 to generate a buffering score. These pretest results are used to select specific procedures to further analyze the test substance. Compounds with a buffering score between 5 and 2 are within the MA α domain. Compounds outside of the MA α domain with buffering scores less than 100 are within the HMA α domain. Substances with a buffering score of at least 100 are within the H-test domain.
(§4) The MA α procedure is used to test unknowns that have a small buffering capacity. The MA α procedure predicts a substance's capacity for indirect denaturation of molecules across a membrane via osmotic effects, such as osmotic effects across the corneal epithelium and stroma which can damage the cornea. The MA α assay further analyzes Potential to damage tissue via excessive oxidation and reactivity, which can occur at the epithelium, stroma, conjunctiva and iris.

eye = conditions: cited from earlier work
[2] = Water insoluble assay (Delta): optical response (OD700) of the hydrophobic polymer Δ reagent, irritation score; conditions: TP/FN/TN based on comparison with the in vivo test results
Description: Triplicate Δ Test and Δ Control cells are labeled as follows: Test Cell 40 μL; Control Cell 40 μL; Test Cell Standard A; Test Cell Standard B. The cells are placed in a rack. 40 μL aliquots of test sample are added to the three Δ positive cells. 40 μL of Standard A+ and 40 μL of Standard B+ are added to the respective triplicate cells. 40 μL of test substance is aliquoted to the True Negative cell. All test and standard cells (A+, B+, and control cells) are filled with 2 mL of Δ reagent. […] 2 mL of Δ reagent is added to a naïve Δ test cell to blank a spectrophotometer. The OD700 value is measured for all test and standard cells. Where the substance is colored or opaque, 2 mL of Δ reagent are added to a naïve control Δ cell, and the OD700 value is measured for all control cells.
Test Cell values are recorded. Control cell values are recorded. Where samples are colored or opaque Net OD700 values are obtained by subtracting the average of the control cell OD700 value from the average of the test cell OD700 value. The average of positive controls A+ and B+ are calculated.
For each unknown, an irritancy classification is ascertained by using the closest positive cell value. The highest measured value is used. The standard with the closest OD value is identified as the Closest Standard Value. The Measured Value is divided by the mean of the three Closest Standard Values. A multiplier is applied to the quotient corresponding to the designation of the Closest Standard Value. If the Closest Standard Value is A+, the multiplier is 8. […] The resulting value is the irritation score for the sample. The highest score is used to predict the irritancy of the sample.

[3] = test system: water-soluble protein/glycoprotein test matrix
Description: as §1, §2, §3, §4

[4] = category of irritant from published in vivo irritancy tests (GHS)

Compound	Water soluble assay (Alpha), parenthetical call versus in vivo [1]	in vivo (eye; [4])	water insoluble assay (Delta), parenthetical call versus in vivo [2]	Water soluble assay (Alpha) [3]	Water soluble assay (Alpha), parenthetical call versus in vivo [3]	in vivo (eye; rabbit, in vivo)
NCCO [Ethanolamine]	(TP)	Category 2B	(FN)			
CN(C)CCCCCCN(C)C [tetramethyl-1,6 hexanediame]	(TP)		(TP)			
O=C(Cl)C(Cl)(Cl)Cl [Trichloroacetyl chloride]	(TP)		(TP)			
C=CC(=O)OCCO [Hydroxyethyl acrylate]	(TP)					
OCc1ccccc1 [Benzyl Alcohol]	(TP)		(TP)			
CO[Si](CCCNCCC[Si](OC)(OC)OC)(OC)OC [Organofunctional Silane]				25.53	(TP)	Category 1
CCC(C)(C)C(=O)O [2,2-Dimethyl Butanoic Acid]	(TP)		(FN)			
CCN(CC)CCO [Diethylethanolamine]				53.54	(TP)	Category 1
BrCCCCCCBr [1,6-Dibromohexane]	(TN)	Not Classified	(TN)			
CCOC(=O)C(C)(C)O [Ethyl a-hydroxyisobutyrate]				>60	(TP)	Category 1
CCCCC(CC)COC(=O)c1ccc(N(C)C)cc1 (stereo not shown) [2-Ethylhexyl 4-(dimethylamino)benzoate]	(TN)	Not Classified	(TN)			
CC(C)(C)CC(C)(C)c1ccc(O)cc1 [4-(1,1,3,3-Tetramethylbutyl)phenol]	(TP)		(FN)			
CCCCCCO [1-Hexanol]	(TP)	Category 2A	(FN)			
c1ccncc1 [Pyridine]						Category 1
O=C=Nc1ccc(Cl)c(Cl)c1 [3,4-Dichlorophenyl isocyanate]	(TP)		(FN)			
CCOC(=O)C(C)C(C)=O (stereo not shown) [Ethyl 2-methyl]				10.9	(FN)	Category 2B
ClCCCCBr [1-Bromo-4-chlorobutane]	(TN)	Not Classified	TN)			
CC(C)O [2-Propanol]	(TP)	Category 2A	(FN)			
CCCCCCCCCCCC [Dodecane]	(TN)	Not Classified	(TN)			
CCCCCCCCN [n-Octylamine]	(TP)		(TP)			
